Key:
Assay in all cases: pIC50, kinobeads binding competition
Details in all cases: cell material: Jurkat lysate
UniProt O15530 = molecular target: T1, UniProt O15530
T1 sequence (whole entry): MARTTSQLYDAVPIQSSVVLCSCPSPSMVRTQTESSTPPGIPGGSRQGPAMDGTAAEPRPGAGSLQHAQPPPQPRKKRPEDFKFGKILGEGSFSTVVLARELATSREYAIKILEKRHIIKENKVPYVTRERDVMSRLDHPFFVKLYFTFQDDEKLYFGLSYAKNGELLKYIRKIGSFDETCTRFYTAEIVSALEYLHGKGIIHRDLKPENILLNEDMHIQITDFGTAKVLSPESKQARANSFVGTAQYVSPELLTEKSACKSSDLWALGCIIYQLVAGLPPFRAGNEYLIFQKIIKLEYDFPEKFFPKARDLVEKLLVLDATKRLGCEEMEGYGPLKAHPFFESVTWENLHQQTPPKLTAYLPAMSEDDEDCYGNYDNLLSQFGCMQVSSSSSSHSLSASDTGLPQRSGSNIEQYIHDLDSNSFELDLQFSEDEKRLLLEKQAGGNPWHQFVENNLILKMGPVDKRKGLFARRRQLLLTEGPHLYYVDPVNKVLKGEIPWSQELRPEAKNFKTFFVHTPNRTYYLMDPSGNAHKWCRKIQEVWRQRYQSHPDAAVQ

ROCK2 = ROCK2 (UniProt O75116)
Chain of ROCK2 (O75116 whole entry, looked up): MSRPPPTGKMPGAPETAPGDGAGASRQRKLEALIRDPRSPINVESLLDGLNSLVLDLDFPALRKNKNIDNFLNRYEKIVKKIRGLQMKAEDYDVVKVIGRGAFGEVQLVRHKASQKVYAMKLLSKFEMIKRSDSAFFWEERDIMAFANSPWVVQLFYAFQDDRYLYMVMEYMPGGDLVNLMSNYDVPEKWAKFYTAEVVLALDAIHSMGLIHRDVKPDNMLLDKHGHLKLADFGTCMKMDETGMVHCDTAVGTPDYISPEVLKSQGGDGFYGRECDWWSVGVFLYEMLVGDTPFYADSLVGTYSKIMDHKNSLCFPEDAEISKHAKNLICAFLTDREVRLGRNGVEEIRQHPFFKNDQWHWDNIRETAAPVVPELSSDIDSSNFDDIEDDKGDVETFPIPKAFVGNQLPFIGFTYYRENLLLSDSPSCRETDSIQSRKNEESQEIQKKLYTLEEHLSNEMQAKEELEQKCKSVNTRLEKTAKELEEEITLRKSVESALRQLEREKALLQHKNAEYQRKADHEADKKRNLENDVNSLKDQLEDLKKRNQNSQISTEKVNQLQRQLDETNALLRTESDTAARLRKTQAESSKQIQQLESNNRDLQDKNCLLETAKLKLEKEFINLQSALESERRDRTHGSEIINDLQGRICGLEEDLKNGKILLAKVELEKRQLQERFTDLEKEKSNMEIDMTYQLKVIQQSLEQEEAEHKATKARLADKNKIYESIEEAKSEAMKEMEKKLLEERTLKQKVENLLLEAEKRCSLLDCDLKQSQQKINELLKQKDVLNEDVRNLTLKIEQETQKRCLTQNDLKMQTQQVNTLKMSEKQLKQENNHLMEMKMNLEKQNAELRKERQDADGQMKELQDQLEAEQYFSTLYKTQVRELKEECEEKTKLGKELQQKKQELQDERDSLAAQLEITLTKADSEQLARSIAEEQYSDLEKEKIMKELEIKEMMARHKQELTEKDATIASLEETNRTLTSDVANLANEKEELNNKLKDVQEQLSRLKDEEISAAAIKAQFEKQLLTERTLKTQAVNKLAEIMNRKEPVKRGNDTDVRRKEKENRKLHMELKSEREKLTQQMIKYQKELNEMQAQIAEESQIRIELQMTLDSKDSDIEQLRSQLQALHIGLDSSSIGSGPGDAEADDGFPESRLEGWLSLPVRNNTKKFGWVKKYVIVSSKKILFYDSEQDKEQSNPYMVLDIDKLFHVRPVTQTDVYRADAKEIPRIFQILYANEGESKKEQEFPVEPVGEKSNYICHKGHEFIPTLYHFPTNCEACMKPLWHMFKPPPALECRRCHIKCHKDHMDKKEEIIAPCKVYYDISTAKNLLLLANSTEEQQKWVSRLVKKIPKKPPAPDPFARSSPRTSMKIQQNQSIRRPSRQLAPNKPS

CAMK4 = molecular target: T2, CAMK4 (UniProt Q16566)
T2 sequence (whole entry): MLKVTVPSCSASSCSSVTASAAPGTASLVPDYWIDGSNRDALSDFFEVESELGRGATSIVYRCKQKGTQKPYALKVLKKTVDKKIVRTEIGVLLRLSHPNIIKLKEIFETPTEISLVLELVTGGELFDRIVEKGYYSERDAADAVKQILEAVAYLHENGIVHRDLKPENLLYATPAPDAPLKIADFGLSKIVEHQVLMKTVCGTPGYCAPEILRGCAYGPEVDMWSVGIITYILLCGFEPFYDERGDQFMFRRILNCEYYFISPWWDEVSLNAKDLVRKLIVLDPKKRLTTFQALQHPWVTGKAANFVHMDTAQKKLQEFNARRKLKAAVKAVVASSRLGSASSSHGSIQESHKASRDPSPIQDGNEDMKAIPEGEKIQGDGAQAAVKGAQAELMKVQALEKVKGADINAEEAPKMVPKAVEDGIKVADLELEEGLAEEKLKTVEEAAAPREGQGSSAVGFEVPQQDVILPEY

UniProt Q13043 = molecular target: T3, UniProt Q13043
T3 sequence (whole entry): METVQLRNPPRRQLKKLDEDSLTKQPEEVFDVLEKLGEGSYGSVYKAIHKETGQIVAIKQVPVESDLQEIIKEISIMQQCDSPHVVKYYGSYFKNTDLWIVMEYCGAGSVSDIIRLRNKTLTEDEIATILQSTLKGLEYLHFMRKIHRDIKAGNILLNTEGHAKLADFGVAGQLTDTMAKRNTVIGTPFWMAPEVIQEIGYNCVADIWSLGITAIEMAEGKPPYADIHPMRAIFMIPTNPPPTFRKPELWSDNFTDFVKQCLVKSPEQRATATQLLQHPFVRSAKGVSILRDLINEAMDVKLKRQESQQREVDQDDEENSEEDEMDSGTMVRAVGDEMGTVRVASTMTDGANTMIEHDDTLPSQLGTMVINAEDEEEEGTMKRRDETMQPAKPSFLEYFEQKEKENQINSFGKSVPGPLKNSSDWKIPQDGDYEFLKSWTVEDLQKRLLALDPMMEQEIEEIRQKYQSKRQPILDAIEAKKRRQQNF

UniProt Q13188 = molecular target: T4, UniProt Q13188
T4 sequence (whole entry): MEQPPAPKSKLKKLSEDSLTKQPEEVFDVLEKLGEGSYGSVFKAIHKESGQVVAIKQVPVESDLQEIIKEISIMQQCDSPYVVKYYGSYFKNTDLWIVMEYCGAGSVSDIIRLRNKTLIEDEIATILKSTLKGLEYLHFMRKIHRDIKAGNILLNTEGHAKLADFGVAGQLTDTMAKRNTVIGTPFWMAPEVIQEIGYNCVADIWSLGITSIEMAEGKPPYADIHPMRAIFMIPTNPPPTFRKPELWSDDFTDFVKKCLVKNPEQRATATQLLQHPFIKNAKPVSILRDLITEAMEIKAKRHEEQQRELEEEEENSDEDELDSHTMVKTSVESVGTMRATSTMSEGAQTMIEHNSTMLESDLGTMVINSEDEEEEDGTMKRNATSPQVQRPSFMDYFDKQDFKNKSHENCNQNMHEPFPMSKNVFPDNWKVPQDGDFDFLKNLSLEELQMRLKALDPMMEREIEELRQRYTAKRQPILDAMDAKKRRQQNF

BRAF = BRAF (UniProt P15056)
Chain of BRAF (P15056 whole entry): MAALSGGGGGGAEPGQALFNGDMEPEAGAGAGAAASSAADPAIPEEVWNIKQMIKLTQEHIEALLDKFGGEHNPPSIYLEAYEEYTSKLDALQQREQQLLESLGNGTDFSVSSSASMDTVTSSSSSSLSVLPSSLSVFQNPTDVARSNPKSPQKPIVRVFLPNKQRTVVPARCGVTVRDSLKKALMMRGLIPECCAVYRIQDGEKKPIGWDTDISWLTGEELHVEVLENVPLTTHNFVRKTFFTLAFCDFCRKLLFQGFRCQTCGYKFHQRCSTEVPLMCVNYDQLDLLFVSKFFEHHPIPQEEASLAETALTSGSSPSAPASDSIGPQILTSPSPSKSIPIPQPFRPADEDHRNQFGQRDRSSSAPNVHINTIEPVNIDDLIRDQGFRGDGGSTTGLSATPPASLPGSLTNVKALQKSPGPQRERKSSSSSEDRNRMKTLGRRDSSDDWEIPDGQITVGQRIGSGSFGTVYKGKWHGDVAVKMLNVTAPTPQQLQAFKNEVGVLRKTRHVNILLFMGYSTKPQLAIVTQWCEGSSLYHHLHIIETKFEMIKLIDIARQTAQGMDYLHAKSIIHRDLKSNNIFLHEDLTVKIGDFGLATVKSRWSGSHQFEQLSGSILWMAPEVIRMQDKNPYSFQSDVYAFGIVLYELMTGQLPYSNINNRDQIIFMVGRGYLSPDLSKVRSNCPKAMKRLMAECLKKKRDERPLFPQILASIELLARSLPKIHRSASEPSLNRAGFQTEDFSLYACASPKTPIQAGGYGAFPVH

TTK = molecular target: T5, TTK (UniProt P33981)
T5 sequence (whole entry): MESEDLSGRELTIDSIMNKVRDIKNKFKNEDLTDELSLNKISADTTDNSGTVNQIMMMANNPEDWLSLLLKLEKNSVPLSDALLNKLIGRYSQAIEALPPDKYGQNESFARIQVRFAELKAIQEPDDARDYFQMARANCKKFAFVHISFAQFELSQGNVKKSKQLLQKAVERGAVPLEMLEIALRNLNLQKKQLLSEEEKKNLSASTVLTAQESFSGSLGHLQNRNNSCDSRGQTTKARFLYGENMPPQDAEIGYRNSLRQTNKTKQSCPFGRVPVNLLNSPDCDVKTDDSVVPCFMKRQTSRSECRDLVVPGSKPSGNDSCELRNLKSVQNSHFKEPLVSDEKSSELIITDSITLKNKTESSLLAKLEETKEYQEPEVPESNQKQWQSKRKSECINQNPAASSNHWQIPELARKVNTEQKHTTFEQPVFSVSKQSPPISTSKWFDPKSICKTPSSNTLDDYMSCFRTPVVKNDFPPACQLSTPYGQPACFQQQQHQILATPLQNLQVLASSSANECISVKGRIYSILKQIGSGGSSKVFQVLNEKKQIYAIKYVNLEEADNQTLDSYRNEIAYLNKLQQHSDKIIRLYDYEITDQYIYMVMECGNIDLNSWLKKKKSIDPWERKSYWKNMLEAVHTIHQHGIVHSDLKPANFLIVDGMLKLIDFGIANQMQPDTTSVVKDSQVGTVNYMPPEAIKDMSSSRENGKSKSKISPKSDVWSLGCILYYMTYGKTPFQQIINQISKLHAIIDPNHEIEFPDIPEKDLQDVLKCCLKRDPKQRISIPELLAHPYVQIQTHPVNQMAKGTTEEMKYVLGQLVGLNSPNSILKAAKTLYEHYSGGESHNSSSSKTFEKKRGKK

Measured: pIC50

CCc1cnn2c(NCc3ccc[n+]([O-])c3)cc(N3CCCC[C@H]3CCO)nc12 [dinaciclib]
< 4.52: all assays above

Source: the supplement of paper PMC12076712
